Results as given in ChEMBL document CHEMBL2331134, “Design and synthesis of 3,5-diaryl-4,5-dihydro-1H-pyrazoles as new tyrosinase inhibitors” (Bioorg Med Chem, 2013).
Active and inactive are the calls of the source. No cut-off for these calls is given here.

Legend:
Tyrosinase = target: T1, Tyrosinase (Agaricus bisporus, UniProt O42713)
T1 sequence (O42713 whole entry): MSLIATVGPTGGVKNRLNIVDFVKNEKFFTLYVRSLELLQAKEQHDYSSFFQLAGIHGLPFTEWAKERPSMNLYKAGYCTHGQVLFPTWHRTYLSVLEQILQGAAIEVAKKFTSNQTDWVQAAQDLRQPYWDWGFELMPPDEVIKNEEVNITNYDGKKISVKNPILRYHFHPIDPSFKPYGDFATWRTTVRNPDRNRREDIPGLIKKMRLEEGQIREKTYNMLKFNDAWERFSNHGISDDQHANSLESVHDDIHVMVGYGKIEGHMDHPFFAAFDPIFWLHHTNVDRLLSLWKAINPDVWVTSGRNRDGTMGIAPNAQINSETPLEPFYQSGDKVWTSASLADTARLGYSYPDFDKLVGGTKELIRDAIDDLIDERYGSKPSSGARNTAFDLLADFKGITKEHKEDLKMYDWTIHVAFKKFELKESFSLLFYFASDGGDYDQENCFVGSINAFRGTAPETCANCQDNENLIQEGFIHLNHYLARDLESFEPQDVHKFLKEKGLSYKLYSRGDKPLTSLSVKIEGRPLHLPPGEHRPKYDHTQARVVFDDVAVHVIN
Description: Inhibition of mushroom tyrosinase assessed as reduction in diphenolase activity using L-DOPA substrate pre-incubated for 20 mins at 30 degC

[1] = target: T2, Tyrosinase (Agaricus bisporus) (UniProt O42713); assay: Competitive inhibition of mushroom tyrosinase assessed as reduction in L-DOPA oxidation by Lineweaver-Burk plot
T2 sequence (whole entry): T1 sequence (O42713 whole entry)

IC50 (Tyrosinase) | inhibition [1] | SMILES
2.74 µM | Active | CC(=O)N1N=C(c2ccc(O)cc2O)CC1c1ccc(O)c(O)c1 (stereo unspecified)
 | Active | O=C1CC(c2ccc(O)cc2O)Oc2cc(O)cc(O)c21 (stereo unspecified)
> 200 µM |  | O=c1cc(-c2ccc(O)cc2O)oc2cc(O)cc(O)c12 [NORARTOCARPETIN]
0.882 µM | Active | Oc1ccc(C2CC(c3ccc(O)cc3O)=NN2)cc1 (stereo unspecified)
 | Active | O=C(/C=C/c1ccc(O)cc1O)c1ccc(O)cc1O
0.837 µM | Active | Oc1cccc(C2CC(c3ccc(O)cc3O)=NN2)c1 (stereo unspecified)
0.863 µM | Active | CC(=O)N1N=C(c2ccc(O)cc2O)CC1c1cccc(O)c1 (stereo unspecified)
2.43 µM |  | COc1cc(C2CC(c3ccc(O)cc3O)=NN2)ccc1O (stereo unspecified)

The next lines start with the compound.

SMILES | IC50 (Tyrosinase) | inhibition [1]
COc1cc(O)ccc1C1CC(c2ccccc2O)=NN1C(C)=O (stereo unspecified) | > 200 µM | 
COc1cc(OC)cc(-c2nc(-c3ccc(O)cc3O)cs2)c1 | 2 µM | 
COc1cc(C2CC(c3ccccc3O)=NN2C(C)=O)ccc1O (stereo unspecified) | 13.4 µM | 
CC(=O)N1N=C(c2cc(O)cc(O)c2)CC1c1cccc(O)c1 (stereo unspecified) | > 200 µM | 
O=C(OCc1ccc(O)cc1)c1ccc(O)cc1O |  | Active
CC(=O)N1N=C(c2cc(O)cc(O)c2)CC1c1ccc(O)cc1 (stereo unspecified) | 161 µM | 
COc1cc(C2CC(c3ccc(O)cc3O)=NN2C(C)=O)ccc1O (stereo unspecified) | 0.301 µM | Active
CC(=O)N1N=C(c2ccccc2O)CC1c1ccc(O)cc1 (stereo unspecified) | 13.1 µM | 
CC(=O)N1N=C(c2ccc(O)cc2)CC1c1cccc(O)c1 (stereo unspecified) | 147 µM | 
CC(=O)N1N=C(c2ccc(O)cc2O)CC1c1ccc(O)c([N+](=O)[O-])c1 (stereo unspecified) | > 200 µM | 
CC(=O)N1N=C(c2ccccc2O)CC1c1ccc(O)c(O)c1 (stereo unspecified) | > 200 µM | 
CC(=O)N1N=C(c2ccc(O)cc2)CC1c1ccc(O)c(O)c1 (stereo unspecified) | 1.07 µM | 
Oc1ccc(C2CC(c3ccccc3O)=NN2)cc1 (stereo unspecified) | 11.8 µM | 
CC(=O)N1N=C(c2ccc(O)cc2O)CC1c1ccc(O)cc1 (stereo unspecified) | 1.69 µM | Active
COc1cc(C2CC(c3ccc(O)cc3)=NN2C(C)=O)ccc1O (stereo unspecified) | > 200 µM | 
CC(=O)N1N=C(c2ccccc2O)CC1c1cccc(O)c1 (stereo unspecified) | > 200 µM | 
CC(=O)N1N=C(c2ccc(O)cc2)CC1c1ccc(O)cc1 (stereo unspecified) | 3.51 µM | 
